Assays:
[1] = target: FTase (wild-type protein farnesyltransferase) (Rattus norvegicus, UniProt Q02293+Q04631); test: Single-turnover; type: biochemical; conditions: 800 nM FTase, 200 nM FPP, 25 μM peptide, 5 μM MDCC-PBP, 34 units mL^−1 PPiase, 50 mM HEPPSO pH 7.8, 5 mM TCEP, 5 mM MgCl2, 25 °C; for Single turnover rate constant kSTO, X=S: dansyl-GCVa2S panel
FTase = FTase (Rattus norvegicus, UniProt Q02293+Q04631); test: Radioactive assay of FTase-catalyzed farnesylation; type: biochemical; conditions: data not shown, farnesylated slowly
Sequence of FTase (Q02293 whole entry, one chain of several): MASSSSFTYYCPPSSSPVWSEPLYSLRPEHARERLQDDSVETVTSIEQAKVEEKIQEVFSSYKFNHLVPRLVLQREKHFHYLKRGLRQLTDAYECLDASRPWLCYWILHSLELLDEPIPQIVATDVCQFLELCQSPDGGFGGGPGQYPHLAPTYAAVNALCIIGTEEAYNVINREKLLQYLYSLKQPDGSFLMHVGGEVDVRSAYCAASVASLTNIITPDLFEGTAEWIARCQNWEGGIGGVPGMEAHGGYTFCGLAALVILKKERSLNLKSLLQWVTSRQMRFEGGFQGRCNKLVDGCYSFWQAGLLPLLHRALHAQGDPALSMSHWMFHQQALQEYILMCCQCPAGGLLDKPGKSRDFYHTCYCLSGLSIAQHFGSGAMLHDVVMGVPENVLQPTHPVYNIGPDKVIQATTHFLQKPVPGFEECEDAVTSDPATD

Row | Substance | Single turnover rate constant kSTO, X=S [1] | further results
1 | dansyl-GCVGM |  | Single turnover rate constant kSTO, X=M ([1]; dansyl-GCVa2M panel): 0.26 ± 0.01 s⁻¹
2 | dansyl-GCVGS | 0.092 ± 0.004 s⁻¹ | 
3 | dansyl-GCVLS | 3.8 ± 0.5 s⁻¹ | 
4 | dansyl-GCVRS |  | apparent value for kcat/KM (FTase): < 1000 M⁻¹ s⁻¹

Reference: paper PMC2765569 (Biochemistry, 2009)
